The results in this text go back to BindingDB's records for patent US20240083872 (Shionogi, 2024).

The Ki is the dissociation constant of the complex between target and ligand, obtained from inhibition or displacement.

In test [1] the target is 5-hydroxytryptamine receptor 2A (Homo sapiens, UniProt P28223). Nature of the test: 5-HT2A Receptor Binding Inhibition Assay. The procedure:
(§1) Binding Test of the Compound According to the Present Invention: In advance, 0.5 μL of the compound solution dissolved in DMSO was dispensed into a microplate, and the cell membrane and the hot ligand were diluted with Assay buffer, respectively. Then, the Assay buffer containing the diluted cell membrane was dispensed into a microplate at 50 μL/well. Then, the radioactive ligand solution was dispensed into a microplate at 50 μL/well, and the plate was sealed. Then, it was allowed to stand at room temperature (25° C.) for 1.5 hours. During this period, 50 mmol/L Tris-HCl (pH 7.4) was dispensed into a GF/B UniFilter plate at 50 μL/well and allowed to stand at 4° C. for 1 hour or longer. After that, filtration was performed with Cell harvester (PerkinElmer). […] The radioactivity of [3H]-Ketanserin bound to the 5-HT2A receptor was measured using Microbeta2 (PerkinElmer) at a measurement time of 1 min/well. The non-specific binding was calculated from the radioactivity of [3H]-Ketanserin in the presence of 500 μmol/L Serotonin HCl with the unlabeled ligand, and the total binding was calculated from the radioactivity of [3H]-Ketanserin in the absence of the compound according to the present invention (Vehicle). Finally, the Ki value was calculated from the dose-response curve.

The target in test [2] is T1, 5-hydroxytryptamine receptor 2C (Homo sapiens, UniProt P28335).
T1 sequence (P28335 whole entry): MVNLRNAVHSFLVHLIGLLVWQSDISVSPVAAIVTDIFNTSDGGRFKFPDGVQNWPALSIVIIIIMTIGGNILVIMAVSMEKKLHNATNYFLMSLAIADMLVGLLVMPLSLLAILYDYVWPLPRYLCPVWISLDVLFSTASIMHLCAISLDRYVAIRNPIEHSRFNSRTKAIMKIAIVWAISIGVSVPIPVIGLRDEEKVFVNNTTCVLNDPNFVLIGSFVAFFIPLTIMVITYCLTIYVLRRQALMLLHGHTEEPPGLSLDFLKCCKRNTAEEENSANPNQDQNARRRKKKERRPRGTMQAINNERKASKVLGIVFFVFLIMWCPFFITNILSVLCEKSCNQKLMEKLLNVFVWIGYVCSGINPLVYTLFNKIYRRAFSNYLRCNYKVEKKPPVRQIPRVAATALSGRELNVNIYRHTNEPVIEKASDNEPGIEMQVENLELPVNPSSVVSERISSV
Nature of the test: 5-HT2C Receptor Binding Inhibition Assay. The procedure: as §1, with “Invention:In” for “Invention: In”, “37° C.” for “room temperature (25° C.)”, “2” for “1.5”, “(PerkinElmer). After the GF/B UniFilter plate was dried at room temperature, MicroScinti 20 was dispensed into the GF/B UniFilter plate at 50 μL/well, and the plate was sealed.” for “(PerkinElmer).”, “[3H]-Mesulergine” for “[3H]-Ketanserin”, “(Vehicle).” for “(Vehicle). Finally, the Ki value was calculated from the dose-response curve.”

5-hydroxytryptamine receptor 2A, sequence (P28223 whole entry): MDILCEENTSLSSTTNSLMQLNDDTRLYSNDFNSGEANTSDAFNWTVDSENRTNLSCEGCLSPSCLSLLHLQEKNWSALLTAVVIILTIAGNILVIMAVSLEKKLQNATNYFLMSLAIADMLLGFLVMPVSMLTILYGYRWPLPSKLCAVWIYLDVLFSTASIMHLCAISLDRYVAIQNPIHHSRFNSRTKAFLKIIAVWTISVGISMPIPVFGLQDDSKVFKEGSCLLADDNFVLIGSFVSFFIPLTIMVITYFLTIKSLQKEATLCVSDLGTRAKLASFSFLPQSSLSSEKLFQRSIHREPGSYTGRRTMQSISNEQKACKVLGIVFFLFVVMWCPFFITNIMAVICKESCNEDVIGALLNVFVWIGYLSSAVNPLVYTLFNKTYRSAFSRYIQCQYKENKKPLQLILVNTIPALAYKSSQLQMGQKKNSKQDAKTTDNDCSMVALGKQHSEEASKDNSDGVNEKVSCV

`CC(C)CNc1ccc(CN(Cc2ccn(C)n2)C(=O)NC2CCN(C)CC2)cc1` [US20240083872, Compound I-030]: the figures for the Ki in test [1] and in test [2] were 2.17 nM and 7.76 nM, respectively.
